Values joined by “and” are separate entries in the source; they are usually repeats but may differ in a detail not shown here. Equal entries are not always repeated. “Also recorded” adds a separate entry of the source. Where two headings read alike, the source gives them in different places.
Legend:
[1] = target: T1, RNF146 WWE domain (Homo sapiens, UniProt Q9NTX7); experiment: Competitive FP-based binding assay with TAMRA-isoADPr tracer; details: for IC50: TAMRA-isoADPr 20 nM, RNF146 WWE 100 nM; for Hillslope: IC50 curve of fragment hits
T1 construct: PARP11, PARP14, TiPARP, DTX2, and RNF146 WWE domain plasmids were either cloned or purchased from Twist Biosciences; His tag (N); made in house; host or cells: E. coli BL21(DE3), pET28a
T1 sequence (Q9NTX7 92-168 limits assumed): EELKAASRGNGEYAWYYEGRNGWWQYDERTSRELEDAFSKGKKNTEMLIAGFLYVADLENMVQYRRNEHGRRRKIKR

[2] = system: WWE domains; experiment: FP titration of different WWE domains using TAMRA-ADPr; format: binding; details: Figure S3, n = 3
From the text: (§1) We then screened the tracer TAMRA-isoADPr against WWE domains of some other proteins, including PARP11, PARP14, HUWE1, TiPARP, and DTX2, under the same conditions. […] To check the folding of purified WWE domains, we obtained the circular dichroism (CD) spectra for the purified WWE domains, and the results indicated proper folding of all purified proteins (Figure S5). […] The isoADPr binding pocket of RNF146 WWE is special in that the entire pocket is largely positively charged with multiple arginine and lysine residues to interact with both phosphate groups of isoADPr, while this feature is missing in other WWE domains containing proteins (Figure S2). Indeed, RNF146 WWE is the only reported high-affinity binder of the isoADPr monomer, so it is likely that other WWE domains tested are simply too weak binders to show any significant binding at the concentrations tested.
Figure S3. FP titration of different WWE domains using TA M R A -ADPr (n= 3). Data of SA RS-C oV 2 N sp3
Macro (black) is shown here as comparison.
F i g u re S 4. Attempted IC50 measurement and chemical structure of Z1203162033. […]

[3] = target: T1, RNF146 WWE domain; experiment: FP protein titration of tracer with RNF146 WWE; format: binding; details: tracer 20 nM, Tris buffer pH 8.0
Method: Having obtained the tracer molecule TAMRA-isoADPr, we then examined its binding affinity by FP protein titration experiments, where a fixed concentration of the tracer (20 nM) was titrated with increasing concentrations of RNF146 WWE protein in Tris buffer (pH 8.0), yielding a binding curve with an increasing mP shift (ΔmP) until a plateau was observed.
(§2) The purified WWE domain proteins were 3-fold serially diluted from 20 μM to ∼5 nM in the assay buffer (25 mM Tris pH 8.0, 150 mM NaCl, and 0.01% Tween-20). In the assay, 50 μL of the protein solution at each concentration was transferred to a 96-well black plate (Corning, #3915), followed by the addition of 50 μL of TAMRA-isoADPr (40 nM, 2X) in the assay buffer to reach a final volume of 100 μL. The plate was allowed to stand at RT for 30 min and then scanned on Cytation5 equipped with an FP filter cube (Agilent, part number: 8040562, Ex: 530/25, Em: 590/35). mP values were calculated using the equation below [drawing 1] where F// and F⊥ are the parallel and perpendicular fluorescence intensities, respectively, and G is the grating factor of the instrument, which was calibrated so that 20 nM 5-TAMRA has an mP shift of 50. The obtained mP data were fitted in the one-site-specific binding model implemented in GraphPad Prism 9.4.1 (GraphPad Software, Inc.) to give the Kd value using the equation below [drawing 2]

[4] = target: T2, DTX2 WWE (Homo sapiens, UniProt Q86UW9); experiment: FP titration of WWE domains with TAMRA-isoADPr; format: binding; details: same conditions as RNF146 WWE titration
T2 sequence (Q86UW9 98-174 limits assumed): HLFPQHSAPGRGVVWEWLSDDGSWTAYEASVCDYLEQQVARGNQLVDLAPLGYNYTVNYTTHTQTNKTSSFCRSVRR
From the text: as §1, §2

[5] = target: T3, HUWE1 WWE (Homo sapiens, UniProt Q7Z6Z7); experiment: FP titration of WWE domains with TAMRA-isoADPr; format: binding; details: same conditions as RNF146 WWE titration
T3 construct: The HUWE1 WWE domain was purified as previously reported; made in house
T3 sequence (Q7Z6Z7 1603-1680 limits assumed): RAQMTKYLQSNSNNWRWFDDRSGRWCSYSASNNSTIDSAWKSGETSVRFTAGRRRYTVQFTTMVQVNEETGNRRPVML
From the text: as §1, §2

[6] = target: T4, PARP11 WWE (Homo sapiens, UniProt Q9NR21); experiment: FP titration of WWE domains with TAMRA-isoADPr; format: binding; details: same conditions as RNF146 WWE titration
T4 construct: PARP11, PARP14, TiPARP, DTX2, and RNF146 WWE domain plasmids were either cloned or purchased from Twist Biosciences; made in house; host or cells: E. coli BL21(DE3), pET28a
T4 sequence (Q9NR21 22-106 limits assumed): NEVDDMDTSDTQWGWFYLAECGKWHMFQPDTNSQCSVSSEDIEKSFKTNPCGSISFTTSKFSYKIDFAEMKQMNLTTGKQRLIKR
From the text: as §1, §2

[7] = target: T5, PARP14 WWE (Homo sapiens, UniProt Q460N5); experiment: FP titration of WWE domains with TAMRA-isoADPr; format: binding; details: same conditions as RNF146 WWE titration
T5 construct: PARP11, PARP14, TiPARP, DTX2, and RNF146 WWE domain plasmids were either cloned or purchased from Twist Biosciences; made in house; host or cells: E. coli BL21(DE3), pET28a
T5 sequence (Q460N5 1523-1601 limits assumed): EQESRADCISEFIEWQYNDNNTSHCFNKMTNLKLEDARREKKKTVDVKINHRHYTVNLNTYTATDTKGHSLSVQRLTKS
From the text: as §1, §2

[8] = target: T6, TiPARP WWE (Homo sapiens, UniProt Q7Z3E1); experiment: FP titration of WWE domains with TAMRA-isoADPr; format: binding; details: same conditions as RNF146 WWE titration
T6 construct: PARP11, PARP14, TiPARP, DTX2, and RNF146 WWE domain plasmids were either cloned or purchased from Twist Biosciences; made in house; host or cells: E. coli BL21(DE3), pET28a
T6 sequence (Q7Z3E1 332-410 limits assumed): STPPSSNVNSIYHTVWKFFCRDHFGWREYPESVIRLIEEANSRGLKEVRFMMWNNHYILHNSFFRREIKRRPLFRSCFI
From the text: as §1, §2

[9] = target: T7, RNF146 WWE (Homo sapiens, UniProt Q9NTX7); experiment: Fragment library screening by competitive FP, 384-well; format: binding; details: 100 μM, 1% DMSO
T7 construct: PARP11, PARP14, TiPARP, DTX2, and RNF146 WWE domain plasmids were either cloned or purchased from Twist Biosciences; His tag (N); made in house; host or cells: E. coli BL21(DE3), pET28a
T7 sequence (Q9NTX7 92-168 limits assumed): T1 sequence (Q9NTX7 92-168 limits assumed)
Method: To test the performance of the established FP assay in high-throughput formats, we conducted a pilot screen where isoADPr was used as the positive control, and Enamine Essential Fragments Library, which contains 320 fragments, was used as a test case for potential inhibitors. The test library was screened at 100 μM in 1% DMSO under the established conditions in duplicates in two 384-well plates (Figure 4A). In each plate, four controls were used: buffer control, tracer control, negative control, and positive control. Buffer control allowed the detection of background fluorescence, while tracer and negative controls gave mP values of the free tracer and maximally bound tracer, to which inhibition rates of fragment candidates were normalized. […] From these control wells, different assay parameters could be calculated. One important FP assay parameter is the assay window (ΔmP), which is calculated as the difference between the mP value recorded for the bound tracer (i.e., negative control) and the mP value recorded for the free tracer (i.e., tracer control). […] Another parameter general to all HTS assays is the screening window coefficient (Z′ factor). A Z′ factor value between 0.5 and 1 is suitable for HTS.[26] […] Moreover, the coefficients of variation (CV) of both negative and positive control wells were low.
Using epMotion 96 (Eppendorf), 49.5 μL of the assay solution (100 nM RNF146 WWE and 20 nM TAMRA-isoADPr) or control solution (tracer-only, buffer-only, and positive control with additional 100 μM isoADPr) was transferred from a 96-well mother plate to a 384-well black plate (Corning, #3575). […] For each fragment and positive and negative control well, the relative percent binding of the tracer was calculated as described above. Z’ factor was calculated with the following equation [drawing 5] where σP and σN are the standard deviations of ΔmP values of positive and negative control wells, while μP and μN are the mean ΔmP values of positive and negative control wells.

[10] = target: T7, RNF146 WWE; experiment: Biolayer interferometry, immobilized biotin-isoADPr with RNF146 WWE; format: binding; details: BLI
From the text: To further validate that our probe indeed can bind to RNF146 WWE, we sought to measure the Kd value of TAMRA-isoADPr toward RNF146 WWE through biolayer interferometry (BLI). A typical BLI experiment relies on an antibody-coated biosensor tip that can capture the protein of interest, and it was then dipped into solutions containing potential interacting molecules (here, referred to as the analyte).[20] The interaction between the protein and the analyte can be measured in real time through monitoring the reflected light pattern upon complex formation on the biosensor surface, giving useful kinetics information, including kon, koff, and Kd. […] Therefore, we synthesized a biotin-labeled isoADPr compound (11, Figure 3A) from 3′-azido-isoADPr, which is structurally analogous to TAMRA-isoADPr. Biotin-isoADPr was immobilized onto SA biosensors that were then dipped into RNF146 WWE solutions of varying concentrations in multiple association–dissociation cycles (Figure S1B). […] The BLI experiment further supports that our tracer design strategy works for RNF146 WWE.
The binding of biotin-isoADPr to the RNF146 WWE was monitored and measured on an Octet RH16 biolayer interferometer. Three replicate streptavidin biosensor tips (SA) were loaded with 1 μM biotin-isoADPr in the kinetics buffer (PBS with 0.02% Tween-20 and 0.1% BSA) for 300 s. After a 300 s baseline step, the loaded sensor tips were moved to sample wells containing RNF146 WWE protein at 0, 12, 49, 187, 750, 3000, 9000, and 18000 nM in the kinetics buffer sequentially in multiple cycles, with each cycle consisting a 300 s association step in the sample well and a 300 s dissociation step in the buffer well. The volume of each well was 200 μL. A reference biosensor without biotin-isoADPr loading was used to exclude the possibilities of nonspecific binding, and reference wells without RNF146 WWE protein were used for blank subtraction. Data were processed and curves were fitted with a 1:1 best-fit model in Octet BLI Analysis software.

[11] = target: T7, RNF146 WWE; details: isothermal titration calorimetry; read-out: reported Kd; cited from earlier work
[12] = target: T3, HUWE1 WWE; details: reported; cited from earlier work

## [N-]=[N+]=N[C@H]1[C@@H](O[C@H]2O[C@H](COP(=O)(O)O)[C@@H](O)[C@H]2O)[C@H](n2cnc3c(N)ncnc32)O[C@@H]1COP(=O)(O)O [3′-azido-isoADPr]
[1]; IC50 compared with isoADPr
  fold more potent than isoADPr: 2 fold
[1]; 96-well
  IC50: 0.273 µM

## CN(C)c1ccc2c(c1)Oc1cc(N(C)C)ccc1C21OC(=O)c2cc(C(=O)NCCCCCCNC(=O)CCc3cn([C@H]4O[C@H](COP(=O)(O)OP(=O)(O)OC[C@H]5O[C@@H](n6cnc7c(N)ncnc76)[C@H](O)[C@@H]5O)[C@@H](O)[C@H]4O)nn3)ccc21 [TAMRA-ADPr]
[2]
  binding of TAMRA-ADPr: does not bind

## CN(C)c1ccc2c(c1)Oc1cc(N(C)C)ccc1C21OC(=O)c2cc(C(=O)NCCCCCCNC(=O)CCc3cn([C@H]4[C@@H](O[C@H]5O[C@H](COP(=O)(O)O)[C@@H](O)[C@H]5O)[C@H](n5cnc6c(N)ncnc65)O[C@@H]4COP(=O)(O)O)nn3)ccc21 [TAMRA-isoADPr]
[3]
  Kd: 0.0452 µM
[4]
  binding of tracer: no binding; also recorded: none of these WWE domains could bind the tracer
[5]
  binding of tracer: no binding; also recorded: none of these WWE domains could bind the tracer
[6]
  binding of tracer: no binding; also recorded: none of these WWE domains could bind the tracer
[7]
  binding of tracer: no binding; also recorded: none of these WWE domains could bind the tracer
[8]
  binding of tracer: no binding; also recorded: none of these WWE domains could bind the tracer

## COc1cc(CC(=O)O)ccc1O [Z1203162033]
[1]; Figure S4
  binding strength in attempted IC50 measurement: much weaker binder
[9]; AVERAGE of two plates
  percent binding of tracer: 43.4%
[9]; PLATE1
  percent binding of tracer: 43.6%
[9]; PLATE2
  percent binding of tracer: 43.3%

## Nc1ncnc2c1ncn2[C@@H]1O[C@H](COP(=O)(O)O)[C@@H](n2cc(COCCOCCOCCOCCNC(=O)CCCC[C@@H]3SC[C@@H]4NC(=O)N[C@@H]43)nn2)[C@H]1O[C@H]1O[C@H](COP(=O)(O)O)[C@@H](O)[C@H]1O [biotin-isoADPr]
[10]; SA biosensor, 1:1 fit
  Kd: 0.644 µM
[10]; mean ± error, n = 3
  kon: 65700 M⁻¹ s⁻¹
[10]; mean ± error, n = 3, read-out: kdis
  koff: 0.0423 s⁻¹

## O=C(O)c1cc2occc2[nH]1 [compound 12]
[1]
  Hillslope: -1.134
[1]; fragment hits
  IC50: 86.2 µM and 86 µM

## O=C(O)c1sccc1-n1cccc1 [compound 13]
[1]
  Hillslope: -1.834
[1]; fragment hits
  IC50: 39.5 µM and 40 µM

## Nc1ncnc2c1ncn2[C@@H]1O[C@H](COP(=O)(O)O)[C@@H](O)[C@H]1O[C@H]1O[C@H](COP(=O)(O)O)[C@@H](O)[C@H]1O [isoADPr, iso-ADP-ribose]
[1]; 96-well
  IC50: 0.623 µM
[11]
  Kd: 0.37 µM
[12]
  Kd: 13 µM

Reference: PMC10877565, “Iso-ADP-Ribose Fluorescence Polarization Probe for the Screening of RNF146 WWE Domain Inhibitors” (ACS Chemical Biology, 2024)
